Results published in patent publication US20250009753A1, “METHODS FOR TREATING IMMUNE REFRACTORY LUNG CANCER” (Revolution Medicines, Inc., priority 2022, published 2025).

Tested on: eLL2 KRASWT/G12C NRAS−/− A2 tumors
Assay: Immune cell infiltration in tumors by flow cytometry
Format: in vivo, mouse
Details: 24 hours post 4 days of treatment, Compound A 200 mg/kg po qd, RMC-4550 30 mg/kg po qd, anti-PD-1 10 mg/kg ip qw
Protocol: Methods: Effects of Compound A (Ex. A556 of Table 1). dosed at 200 mg/kg po qd, RMC-4550 dosed at 30 mg/kg po qd, anti-PD-1 dosed at 10 mg/kg ip qw and the combination therapies on the immune cell infiltration in the eLL2 KRASWT/G12C NRAS−/− A2 tumors have been evaluated 24 hours post 4 days of treatment in 3 mice/group by flow cytometry. Tumor tissue was minced, processed with the Miltenyi Biotec Mouse Tumor Dissociation Kit or the Dri Tumor & Tissue Dissociation Reagent from BD Biosciences, and homogenized with the gentleMACS™ Dissociator. The cell suspension was incubated at 4° C. for 30 minutes with Mouse BD Fc Block (Clone 2.4G2 from BD Pharmingen), 10 minutes with Blue Dead Cell Stain Kit (from Invitrogen) and 30 min in cell staining buffer. Antibodies used targeted CD45 (Clone 30-F11 from BD Biosciences), CD19 (Clone 1D3 from BD Biosciences, CD3E (Clone145-2C11 from Biolegend), CD8b (Clone H35-17.2 from BD Biosciences), CD4 (Clone GK1.5 from Biolegend), CD11b (Clone M1/70 from Biolegend), F4/80 (Clone BM8 from Biolegend), Ly-6G (Clone 1A8 from BD Biosciences) and Ly-6C (Clone HK1.4 from Biolegend).

Cc1nc(N2CCC3(CC2)CO[C@@H](C)[C@H]3N)c(CO)nc1-c1cccc(Cl)c1Cl [RMC-4550]
Ly6G+ myeloid suppressor cells: significantly decreased
